In ChEMBL document CHEMBL1159365, “Sesquiterpenoids from Artemisia gilvescens and an anti-MRSA compound” (J Nat Prod, 2003):
pIC50: −log10 of the molar value. Converted amounts (≈) assume the structure as drawn.

Test system: Staphylococcus aureus
Assay: Antimicrobial activity against methicillin-resistant Staphylococcus aureus after 20 hrs
Assay type: functional

Structure (SMILES) | MIC
CC1=CC(=O)c2c(C)cc3oc(=O)c(C)c-3cc21 | 1.95 µg/mL (≈ 8.12 µM)

Test system: HCT-116
Assay: Cytotoxicity against human HCT116 cells by MTT assay
Assay type: functional, cell-based

Structure (SMILES) | pIC50
C=C1C(=O)O[C@H]([C@@H]2C(=O)C=C[C@]2(C)O)[C@H]1CCC(C)=O [SECOTANAPARTHOLIDE B] | 5.48
C=C1C(=O)O[C@H]([C@@H]2C(=O)C=C[C@@]2(C)O)[C@H]1CCC(C)=O [SECOTANAPARTHOLIDE A] | 5.22
C=C1C(=O)O[C@H]2[C@H]1CC[C@@](C)(O)[C@]13O[C@H]1[C@H]1O[C@@]1(C)[C@H]23 [ARTECANIN] | 4.85
C=C1C(=O)O[C@H]([C@H]2C(=O)C=C[C@@]2(C)O)[C@H]1CCC(C)=O | 5.22
CC1=CC(=O)c2c(C)cc3oc(=O)c(C)c-3cc21 | 4.80
C=C1C(=O)O[C@H](C2=C(C)[C@@H](O)CC2=O)[C@H]1CCC(C)=O [ISOSECOTANAPARTHOLIDE] | 4.89
